Data: PMC9437215, “Synthesis and antibacterial activity evaluation of N (7) position-modified balofloxacins” (Frontiers in Chemistry, 2022)
In brackets after ≈: the same amount, converted by molar mass. Entries after “also recorded” stand apart in the source; their conditions may differ. Like-named read-outs stand apart in the source and are kept apart here.

Experiments:
P. aeruginosa = test: MIC and MBC determinations in vitro, P. aeruginosa; format: cell-based; details: P. aeruginosa clinical isolate; for MIC: 24 h culture; for MBC: solid medium 24 h
Description: (§1) The three strains of MRSA, P. aeruginosa, and E. coli used in this experiment were from clinical isolates, which were provided by the People’s Liberation Army 304 Hospital.
(§2) To evaluate the antibacterial activities of newly synthesized N (7) position modified fluoroquinolones, the minimum inhibitory (MIC) and bactericidal (MBC) concentrations of these compounds toward bacteria were measured.

MRSA [1] = test: MIC and MBC determinations in vitro, MRSA; format: cell-based; details: MRSA clinical isolate; for MIC: 24 h culture; for MBC: solid medium 24 h, read-out: MBC
Description: as §1, §2

MRSA cells = test: Cell wall damage monitored by atomic force microscopy (AFM); format: cell-based; details: 10 μM, 37°C, 30 min
Description: To observe the structural changes in the bacterial surface after the administration of balofloxacin derivative 2-e, atomic force microscope assay was performed. The bacterial suspension was diluted with LB liquid medium to 10^7 CFU/ml. The bacterial solution and the drug solution were mixed in an equal volume so that the concentration of 1e and 2-e was 10 μM in the final solution, respectively. And after mixing, it was incubated at 37°C for 30 min, together with the control group in the same way. After that, the sample was centrifuged at 9,000 rpm for 5 min and the supernatant was discarded, while the precipitate was washed twice with physiological saline in the same volume and centrifuged at 9,000 rpm for 5 min. Finally, the bacterial sample, prepared by dispersion in the same volume of physiological saline solution, was dropped onto the surface of the mica plate (about 0.5 cm^2), dried naturally at ambient temperature, and scanned by an atomic force microscope.

Hemolytic activity = format: cell-based, rabbit; details: male, New Zealand white, rabbit, red cell suspension from rabbit blood; even at high concentrations (> 10^5 × MIC), 37°C, 24 h; read-out: hemolysis rate
Description: (§3) The animal experiment was approved by the Laboratory Animal Management Committee/Laboratory Animal Welfare Ethics Committee, Institute of Radiation Medicine, Chinese Academy of Medical Sciences (No. IRM-DWLL-2019153). Hemolysis anemia is one of the major adverse reactions of antibiotics. To assess the blood compatibility of N (7) position modified balofloxacin, the hemolytic activity of 2-e was tested. Fresh rabbit blood, obtained from the ear vein of a male New Zealand white rabbit, was diluted at a ratio of 1:20 in volume with PBS, centrifuged and resuspended in PBS at 1,000 rpm for 5 min to form an experimental red cell suspension. 500 μL drug 2-e solution and equal volumes of blood suspension were mixed in which the final drug concentration was 500, 250, 125, 62.5, 31.25, 15.62, 7.81, 3.91, 1.95, and 0.98 μg/ml, respectively, these mixtures were incubated at 37°C for 24 h. The positive control group was an equal volume of diluted blood cells mixed with an equal volume of 0.5% Triton X-100. The negative control group was mixed with an equal volume of PBS and diluted blood cells. After incubation, the mixture in a series of centrifuge tubes was centrifuged under the same conditions, and 200 μL of the supernatant was aspirated and transferred to a 96-well plate. The release of hemoglobin from the main contents was measured at A405nm using a microplate reader (Thermo, Varioskan Flash 3001, United States). Each data were from the triplicate experiments. The percentage of hemolysis in the hemolysis test was calculated according to the following formula: %Hemolysis=(A405 test sample−A405 negative control)/(A405 positive control−A405 negative control).

MRSA [2] = test: Time-dependent antibacterial effects in vitro; format: cell-based; details: for antibacterial activity in early and late stages of the exponential growth phase: 10 × MIC; for log10 CFU after the first 8 h: early exponential phase, start log10 CFU 5.5, 10 × MIC
Description: In order to further verify the antibacterial effect of the representative compound 2-e, time-dependent bactericidal activity of 2-e against MRSA was determined. This study referred to the reported methods ([Ling et al., 2015]). MRSA was cultured overnight in LB liquid and the bacterial solution at 10^9 CFU/ml tested on the machine was diluted at 1:10,000 with LB liquid medium and cultured at 37°C, 180 rpm. […] Time-dependent bacterial colonies were evaluated at 4 or 8 h intervals as follows: 100 μL of the mixture at the current time point was taken and centrifuged at 10,000 rpm for 2 min, and the pellet formed was dispersed with PBS, which was diluted by the ten-fold dilution method. 100 μL of bacterial dilution was evenly spread on LB solid medium at 37°C for 24 h. The colonies counted, according to national standards, accounted for the drug’s time-dependent antibacterial results. The same experimental operation was repeated three times independently.

E. coli = test: MIC and MBC determinations in vitro, E. coli; format: cell-based; details: Escherichia coli, E. coli clinical isolate; for MIC: 24 h culture; for MBC: solid medium 24 h
Description: as §1, §2

L-02 = test: Cell viability assay (MTS), L-02; format: cell-based, human; details: L-02
Description: (§4) To investigate the biocompatibility of the synthesized balofloxacin derivative, the cytoxicity of 2-e on human normal cells (3T3, L-02) and tumor cells (BEL-7402, H520, A549, and MCF-7) was studied. As an experimental example human liver cells (L-02) growing in the log phase, were plated in the 96-well plate at a density of 5000 cells/well. The cells were cultured at 37°C for 24 h under 5% CO2 medium. Then different concentrations of 1e and 2-e were added, the L-02 cells were cultured at 37°C for 48 h under a 5% CO2 atmosphere. Then the medium was aspirated, 100 μL of serum-free medium and 20 μL of MTS were added into each well, and L-02 was incubated at 37°C for 1 h under a 5% CO2 atmosphere. After that, the absorbance of the solutions at 490 nm was obtained using a microplate reader and calculated cell survival rate according to the following formula: Cell survive rate(%)=(ODtest−ODblank)/(ODcontrol−ODblank)×100%.

[3] = Cell viability assay (MTS), L-02; format: cell-based, human; details: human, L-02 cells (normal liver cells); L-02, 100 μmol/L, 48 h
Description: as §4

A549 = test: Cell viability assay (MTS), A549; format: cell-based, human; details: A549
Description: as §4

[4] = Cell viability assay (MTS), A549; format: cell-based, human; details: human, A549 tumor cells; A549, 100 μmol/L, 48 h
Description: as §4

[5] = system: rabbit red cell suspension; test: Hemolytic activity; format: cell-based
Description: as §3

BEL-7402 = test: Cell viability assay (MTS), BEL-7402; format: cell-based, human; details: BEL-7402
Description: as §4

[6] = Cell viability assay (MTS), BEL-7402; format: cell-based, human; details: human, BEL-7402 tumor cells; BEL-7402, 100 μmol/L, 48 h
Description: as §4

[7] = system: MRSA, P. aeruginosa, and E. coli; test: MIC and MBC values stated over the three strains together; format: cell-based; details: bound over MIC and MBC, converted to μmol/L; read-out: MIC and MBC
Description: as §1, §2

[8] = Cell viability assay (MTS), 3T3; format: cell-based; details: mouse, 3T3 cells; 3T3, 100 μmol/L, 48 h
Description: as §4

3T3 = test: Cell viability assay (MTS), 3T3; format: cell-based; details: 3T3
Description: as §4

[9] = Cell viability assay (MTS), MCF-7; format: cell-based, human; details: human, MCF-7 tumor cells; MCF-7, 100 μmol/L, 48 h
Description: as §4

MCF-7 = test: Cell viability assay (MTS), MCF-7; format: cell-based, human; details: MCF-7
Description: as §4

H520 = test: Cell viability assay (MTS), H520; format: cell-based, human; details: H520
Description: as §4

[10] = Cell viability assay (MTS), H520; format: cell-based, human; details: human, H520 tumor cells; H520, 100 μmol/L, 48 h
Description: as §4

[11] = Pseudomonas aeruginosa, read-out: MIC
[12] = Pseudomonas aeruginosa, read-out: MBC
[13] = Staphylococcus aureus, MRSA, 24 h, read-out: MIC
[14] = Staphylococcus aureus, MRSA, 24 h

MIC (P. aeruginosa) [µg/mL] | MIC (P. aeruginosa; [11]) [µg/mL] | MIC (MRSA [1]; [13]) [µg/mL] | MIC (E. coli) [µg/mL] | SMILES | MBC (P. aeruginosa) [µg/mL] | MBC (P. aeruginosa; [12]) [µg/mL] | MBC (MRSA [1]; [14]) [µg/mL] | structural change of MRSA cells in AFM image (MRSA cells) | hemolysis at 24 h (Hemolytic activity) [%] | antibacterial activity in early and late stages of the exponential growth phase (MRSA [2]; MRSA) | log10 CFU after the first 8 h (MRSA [2]) | MBC (E. coli) [µg/mL] | other results
0.078 (≈ 0.2 µM) | 0.078 (≈ 0.2 µM) | 0.078 (≈ 0.2 µM) | 0.078 (≈ 0.2 µM) | CNC1CCCN(c2c(F)cc3c(=O)c(C(=O)O)cn(C4CC4)c3c2OC)C1 (stereo not drawn) [Compound 1e, balofloxacin] | 0.156 (≈ 0.401 µM) | 0.156 (≈ 0.401 µM) | 0.156 (≈ 0.401 µM) | ruptured and there was an outflow of cellular contents | ≤ 5 | good antibacterial activity | 0 | 0.156 (≈ 0.401 µM) | –
0.039 (≈ 0.0904 µM) | 0.039 (≈ 0.0904 µM) | 0.0195 to 0.039 (≈ 0.0452 to 0.0904 µM) | 2.5 (≈ 5.79 µM) | COc1c(N2CCCC(N(C)C(C)=O)C2)c(F)cc2c(=O)c(C(=O)O)cn(C3CC3)c12 (stereo not drawn) [Compound 2-e, 1-Cyclopropyl-6-fluoro-8-methoxy-7-(3-(N-methylacetamido)piperidin-1-yl)-4-oxo-1,4-dihydroquinoline-3-carboxylic acid] | 0.078 (≈ 0.181 µM) | 0.078 (≈ 0.181 µM) | 0.039 (≈ 0.0904 µM) | could effectively destroy the membrane and wall of MRSA cells; also recorded: complete discharge of their contents and substantial fragmentation | ≤ 5 | good antibacterial activity | 0 | 5 (≈ 11.6 µM) | toxicity toward cell line (L-02): low toxicity; also recorded: did not show toxicity; viability at 48 h, 100 μmol/L [3]: ≥ 80%; MIC (MRSA [1]): 0.0195 µg/mL (≈ 0.0452 µM); melting point: 201.6 to 202.3 °C; toxicity toward cell line (A549): low toxicity; viability at 48 h, 100 μmol/L [4]: ≥ 80%; hemolytic activity [5]: not hemolytic; time-dependent antibacterial effect, early logarithmic growth phase (MRSA [2]; MRSA): bactericidal effects occurred; time-dependent antibacterial effect, late logarithmic growth phase (MRSA [2]; MRSA): bacterial inhibition occurred; toxicity toward cell line (BEL-7402): low toxicity; viability at 48 h, 100 μmol/L [6]: ≥ 80%; MBC [7]: < 12 µM; viability at 48 h, 100 μmol/L [8]: ≥ 80%; toxicity toward cell line (3T3): low toxicity; viability at 48 h, 100 μmol/L [9]: ≥ 80%; toxicity toward cell line (MCF-7): low toxicity; toxicity toward cell line (H520): low toxicity; viability at 48 h, 100 μmol/L [10]: ≥ 80%
